Molecules are shown by their SMILES.

Data set [1] is described as follows: Quantitative serum lipid analysis (cholesterol, triglyceride) in cholesterol-fed rabbits. It is filed as in vivo, Male New Zealand White rabbits. Conditions: change relative to control group; estriol 1 mg/kg; haloperidol 1/10/5 mg/kg s.c. daily. The source says:
(§1) Serum lipid levels and I/M were expressed as the mean+SEM for all animals. The changes in lipid levels before and after the treatment period were compared using paired t-tests. The differences between the treatment groups and controls were compared using analysis of variance (ANOVA) techniques. Repeated Measures ANOVA was used to compare the difference in plaque loads among the five groups. Multiple regression models were used to compare the differences in plaque loads between the four treatment groups and the control group, adjusting for the difference in cholesterol and triglyceride levels. P<0.05 was considered statistically significant.

Data set [2] relates to aortic atherosclerotic plaque in hypercholesterolemic rabbits. The experiment in a line: Histomorphometric analysis of aortic plaque load (I/M). Type of data set: in vivo, Male New Zealand White rabbits. Conditions: for aortic plaque load vs controls after controlling for changes in serum C and T levels (multiple regression): estriol 1 mg/kg (P=0.052), haloperidol 1/10/5 mg/kg (P=0.069); for (I/M)/(I/M)CG: relative to control group, estriol 1 mg/kg, haloperidol 1/10/5 mg/kg s.c. daily. Here is the method: Five-micron, serial histologic sections (15 each) of 27 ascending aortas were cut from paraffin blocks, stained with hematoxylin and eosin (H&E) and were studied by light microscopy. Images of tissue sections were captured to a Power Macintosh 7300/200 computer by a Hitachi 3-CCD Color Camera (model HV-C20) attached to a Nikon Eclipse E600 microscope. With digital imaging (IPLap Spectrum, Signal Analytics Corporation, Vienna, Va.), they were then analyzed by manual color segmentation by tracting the endothelial surface (intima), internal elastic lamina, and external elastic lamina of each vessel. From segmented images, intimal and medial areas were computed, allowing calculation of intima to media ratios. Plaque load for each aorta was defined as the ratio of intimal area to medial area (I/M).
as §1

Data set [3] relates to aortic atherosclerosis in hypercholesterolemic rabbits. The experiment in a line: Gross examination of the aortas (occlusion). Type of data set: in vivo, Male New Zealand White rabbits. Conditions: treated animals vs control. An excerpt:
With the control animals, there was about 42% occlusion. With the low dose progesterone there was 6% occlusion and with the high dose progesterone there was 0% occlusion evident.

Data set [4] is described as follows: Tolerability / survival during 12-week treatment. Conditions: E: after 18 days; H: at 39 and 71 days, failure to thrive; n=6 per group.
Experimental: (§2) Male New Zealand White rabbits (3.2-4.9 pounds each) were fed a 0.5% cholesterol chow diet for 12 weeks and randomly assigned to five groups (n=6 each); one control group (CG) and four groups treated with estriol (E), haloperidol (H), low-dose 17-hydroxyprogesterone (LDP), or high-dose 17-hydroxyprogesterone (HDP). Serum cholesterol (C) and triglyceride (T) were measured before and after the treatment period in all groups; serum progesterone was determined only in the LDP and HDP groups. After the treatment period, rabbits were euthanized for histomorphometric analysis of aortic plaque load. The rabbits were treated according to the Animal Welfare Act specifications.
(§3) Vehicle only (CG) and vehicle plus steroid (treated groups) were administered daily subcutaneously. Steroid doses were as follows: estriol, 1 mg/kg; haloperidol, 1 mg/kg for 2 weeks, 10 mg/kg for 2 weeks, and 5 mg/kg for 8 weeks; low-dose 17-hydroxyprogesterone, 10 mg/kg; high-dose 17-hydroxyprogesterone, 90 mg/kg.
(§4) After 91-100 days of treatment, twenty-seven rabbits were euthanized for histomorphometric analysis of aortic plaque load.
Data set [5] deals with human monocytes. The experiment in a line: Inhibition of human monocyte/macrophage Fcγ receptor mediated phagocytosis. Type of data set: cell-based. Conditions: 90 min at 37° C.; for % Phagocytic Cells (percent of monocytes/macrophages phagocytosing IgG sensitized cells): buffer control 42%; for PI (phagocytic index, ingested IgG-sensitized cells per 100 monocytes): buffer control 105. Here is the method: The agents to be tested (haloperidol, SCH-23390 and sulpiride) were incubated with human monocytes isolated using lymphocyte separation medium. Incubation was for 90 min at 37° C. Buffer (PBS) treated cells served as a control. At the end of the incubation period, monocytes were exposed to IgG-sensitized cells in accordance with the phagocytic assay of Indik et al, Blood 86:4389 (1995).

The conditions of data set [6]: rabbit, in vivo.
Experimental: as §2, §3, §4

As for `C[C@]12CC[C@@H]3c4ccc(O)cc4CC[C@H]3[C@@H]1C[C@@H](O)[C@@H]2O` [E, estriol], in data set [1], the “Cholesterol Δ/ΔCG” value was found to be 0.71 and the “Triglyceride Δ/ΔCG” value is listed as −0.03. Also, in data set [2], the “aortic plaque load vs controls after controlling for changes in serum C and T levels (multiple regression)” value is “lower”; the “(I/M)/(I/M)CG” value stood at 0.02. In addition, in data set [3], the “atherosclerosis on gross examination of the aortas (in words)” value is recorded as “decreased atherosclerosis”. For the same compound, in data set [4], the “rabbits that died or were sacrificed during treatment” value was “One rabbit in the E group died”.

Consider `O=C(CCCN1CCC(O)(c2ccc(Cl)cc2)CC1)c1ccc(F)cc1` [Haloperidol, haloperidol], for which, in data set [1], the “Cholesterol Δ/ΔCG” value was 0.86 and the “Triglyceride Δ/ΔCG” value turned out to be 0.81. For the same compound, in data set [2], the “aortic plaque load vs controls after controlling for changes in serum C and T levels (multiple regression)” value was “lower”; the “(I/M)/(I/M)CG” value was 0.29. Besides, in data set [5] (50 μM PBS/methanol), the “% Phagocytic Cells (percent of monocytes/macrophages phagocytosing IgG sensitized cells)” value was 0% and the “PI (phagocytic index, ingested IgG-sensitized cells per 100 monocytes)” value is on record as 0. Further, the “tolerance of dose by rabbits” value in data set [6] is on record as “poor tolerance”. Besides, the “rabbits that died or were sacrificed during treatment” value in data set [4] is reported as “two rabbits in he H group were sacrificed”.

For the compound `CN1CCc2cc(Cl)c(O)cc2[C@@H](c2ccccc2)C1` [SCH-23390], in data set [5] (50 μM PBS/methanol), the “% Phagocytic Cells (percent of monocytes/macrophages phagocytosing IgG sensitized cells)” value is 16% and the “PI (phagocytic index, ingested IgG-sensitized cells per 100 monocytes)” value was found to be 38.

Turning to `CCN1CCCC1CNC(=O)c1cc(S(N)(=O)=O)ccc1OC` (stereo not drawn) [Sulpiride, sulpiride], in data set [5] (500 μg/ml PBS/methanol), the “% Phagocytic Cells (percent of monocytes/macrophages phagocytosing IgG sensitized cells)” value is on record as 59% and the “PI (phagocytic index, ingested IgG-sensitized cells per 100 monocytes)” value was 232.

The record behind these values is patent publication US6844333B1, “Method of treating atherosclerosis” (The Trustees of the University of Pennsylvania, priority 1999, dated 2005).
